# In PubChem BioAssay AID2305 (GlaxoSmithKline (GSK), 2010):
# Test system: P. falciparum 3D7 growth, pLDH absorbance
# Experiment: P. falciparum 3D7 growth inhibition, dose response, strain 3D7 (AID 2305)
row,SMILES,IC50 [nM]
1,CCNc1cc(CCCC(=O)OCC)nc(Nc2ccc(C)cc2)n1,770
2,CCC(C)CN1CCN(c2ccc(NC(=O)c3cccs3)cc2)C(C)C1 (centres undefined),540
3,CC(O)C1CCCCN1C(=O)c1ccc(-c2cccc(-c3nc4ccc(F)cc4[nH]3)c2)cc1 (centres undefined),540
4,CC(C)NCc1cccc(-c2cccc(-c3nc4ccc(F)cc4[nH]3)c2)c1,280
5,Fc1ccc2nc(-c3ccc(-c4ccc(CN5CCCCC5)cc4)s3)[nH]c2c1,600
6,OC(CN1CCN(C2CCCCC2)CC1)Cn1c2ccccc2c2cc(Br)ccc21 (centres undefined),860
7,COc1ccc2nccc([C@@H](O)CN3CCC(NC(=O)C(=Cc4ccc(C#N)cc4)c4ccc(-c5ccccc5)cc4)CC3)c2c1,740
8,Cc1ccc2c(c1)C1(CC(=O)N(CCc3scnc3C)C1=O)C(=O)N2Cc1ccccc1 (centres undefined),1250
9,CN(C)CCCN(C)C(=O)c1cc2cc(-c3ccccc3)ccc2n1S(=O)(=O)c1ccccc1,460
10,O=C(NCCc1ccccc1)N(Cc1ccc(-c2cccc(CN3CCNCC3)c2)cc1)C1CCN(Cc2ccccc2)CC1,1360
11,O=C(Nc1cccc(CN2CCCN(CC3CCCCC3)CC2)c1)c1cc2ccccc2s1,810
12,CC1(C)N=C(N)N=C(N)C1c1ccc(Cl)cc1 (centres undefined),260
13,C[C@H]1CN(Cc2cccc(-c3cc(CNC(=O)c4cccc(C(=O)c5ccc(Cl)c(Cl)c5)c4)ccc3F)c2)CCN1,1140
14,COc1ccc(CN(C)CC(O)COc2ccc(NC(=O)c3cccc4c(=O)c5cccc(OC)c5[nH]c34)cc2)cc1OC (centres undefined),780
15,Cc1ccccc1N1CCN(c2ncc(C(=O)NC3CC3)cc2Cl)CC1,630
16,Cc1cc2c(NC(=O)NC3CCN(CCc4cccc(Cl)c4)CC3)cccc2cn1,370
17,Cc1[nH]c2ccccc2c1C1=CCN(CCCCCNC(=O)/C=C/c2ccc(Cl)c(Cl)c2)CC1,270
18,CCN(CCCN1CCCCC1)c1cc(C)nc(Nc2cccc(C(F)(F)F)c2C)n1,610
19,CN1CC[C@@H](Oc2cc(NC(=O)Nc3ccc(Cl)c(C(F)(F)F)c3)ccc2Cl)C1,990
20,CC(C)c1ccc(NC(=O)c2ccc(CN3CCCN(Cc4cccc(O)c4)CC3)cc2)cc1,680

row,SMILES,IC50 [nM]
1,COc1ccc2nc(C)cc(Nc3ccc(Oc4ccc(Br)c5ccccc45)c(Cl)c3)c2c1,280
2,CCCCCCN1CCC(CNCc2cccc(Cl)c2)CC1,1220
3,N#Cc1ccc(N(CCNS(=O)(=O)c2cc(Br)c(Cl)s2)Cc2ccccc2C(F)(F)F)cc1C(F)(F)F,860
4,CC(C)(C)c1cc(C(=O)N2CCN(c3nccnc3C#N)CC2)n(Cc2ccccc2)n1,760
5,Cc1cccc2[nH]c(-c3ccc(-c4ccc(CN5CCN(C6CCN(C)CC6)CC5)cc4)s3)nc12,140
6,Cc1cccc2[nH]c(-c3cccc(-c4cccc(CN5CCCC5CN)c4)c3)nc12 (centres undefined),770
7,COc1cc(-c2nc(-c3ccccc3)c(-c3ccccc3)[nH]2)ccc1OCCN(C)C,300
8,C=CCOc1ccc(Cc2cnc(N)nc2N)cc1CCC,1020
9,COc1ccc2nccc([C@@H](O)CN3CCC(c4cc(-c5ccc(Cl)cc5)n[nH]4)CC3)c2n1,740
10,CC(C)NCc1cccc(-c2ccc(-c3nc4ccc(C(F)(F)F)cc4[nH]3)cc2)c1,190
11,Cc1ccc(O)cc1Nc1ccnc2cc(-c3ccc(CN4CCCCC4)o3)ccc12,170
12,COc1cc(Cc2cnc(N)nc2N)c2c(c1OC)OC(C)C=C2 (centres undefined),1250
13,c1ccc(-c2ccc(CNCc3ccc(-c4cccc(-c5nc6ccccc6[nH]5)c4)cc3)s2)nc1,400
14,Nc1n[nH]c(-c2ccccc2Nc2ccnc3cc(-c4nccs4)ccc23)n1,1120
15,CCN(CCN(C)C)Cc1ccc(-c2ccc(NS(=O)(=O)c3cccc4cccnc34)cc2)cc1,930
16,Cc1cc(Cl)c(Cl)cc1NC(=O)Nc1cccc(C(F)(F)F)c1,870
17,CC(C)c1cc(Oc2c(I)cc(CCN=C(N)N)cc2I)ccc1O,790
18,COc1ccc(CCCCN2C(=O)C(c3ccccc3)(c3ccccc3)N=C2N)cc1,860
19,CCCOc1cccc(C(=O)N[C@@H](Cc2ccccc2)[C@H](O)CNCc2ccccc2OC)c1,880
